Holding throughout (type): cell-based
The subject of assay [1] is FYN (MCP-1). Nature of the assay: Cancer cell proliferation inhibition, MTS assay, 72 hours. In outline: (§1)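 3,000 cells/well, 24 h pre-culture (37° C, 5% CO2); serial dilution of compound, top 50 μM, DMSO 0.05% v/v; 72 h exposure; MTS/PMS 2 h, OD450. IC50 = concentration giving 50% inhibition relative to DMSO control, n = 3 data sets.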
The test system of assay [2] is MDA-MB-231. Nature of the assay: Real time cell proliferation, IncuCyte ZOOM, 72 hours. As to conditions: Homo sapiens, MDA-MB-231, 72 h.
For assay [3], the system named is A375. Nature of the assay: Cancer cell proliferation inhibition, CCK-8, 72 hours. As to conditions: Homo sapiens, A-375, 72 h. In outline: (§2)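 A375 cells (2×10^3/well) attached overnight, then received 9 three-fold dilutions (0.0015-10 μM). K562 and Ba/F3-T315I (1×10^4/well) were given 9-point series (3-fold and 5-fold respectively), final 0-10 μM. After 72 h at 37°C, CCK-8 was added for 2 h; blank-subtracted OD450 gave IC50.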

Assay [4] concerns K562. The description is as above. As to conditions: Homo sapiens, K562, 72 h. In outline:
as §2

Assay [5] concerns the target T1, T315I (Ba/F3) (Homo sapiens, UniProt P00519, T315I, cells depend on it).
T1 construct: fused on or other part: P11274 (Breakpoint cluster region protein)
Described as above. As to conditions: read-out: T315I (Ba/F3) IC50. In outline: as §2

Assay [6] concerns Huh7. Nature of the assay: Cancer cell proliferation inhibition, MTS assay, 72 hours. The settings on record: Homo sapiens, Huh-7. In outline: as §1
Assay [7] relates to SK-MEL-28. The description is as above. As to conditions: Homo sapiens. In outline: as §1
In assay [8] the test system is RET (LC2/ad-CDC6). The description is as above. The settings on record: 72 h. In outline: as §1
In assay [9] the test system is M-NFS-60. The experiment in a line: Cancer cell proliferation inhibition, CCK-8, 72 hours. The protocol:
MTS assay was performed to evaluate the cancer cell proliferation inhibition (cancer cell apoptosis) effect of the compounds of examples of the present invention. Particularly, the assay was performed using the cancer cell lines GIST-T1, GIST-T1/816, GIST-430, GIST-430/654, GIST-R1, GIST-R3, M-NFS-60, RetParental (Ba/F3), Retwt (Ba/F3), RetV804M (Ba/F3), RET (LC2/ad-CDC6), FYN (MCP-1), FYN (FN), MDA-MB-231, Huh7, K562, T315I(Ba/F3), SK-MEL-28 and A375. Cell culture was performed using a medium suitable for each cell line.
M-NFS-60 cell line was cultured in the complete growth medium prepared by adding 10% FBS, 0.05 mM 2-mercaptoethanol and 62 ng of human M-CSF to RPMI. When the confluence reached 80% in T-75 flask, the cells were collected in a 50 ml tube for seeding, followed by centrifugation at 800 rpm for 5 minutes. The cells were suspended in 10 mL of growth medium. The cell number was counted by using a hematocytometer to determine the necessary cell number and the medium volume for seeding. The cells were seeded in a 96-well plate at the density of 20000 cells/well (200 μL/well), followed by stabilization in a 37° C. CO2 incubator, while the compounds of the present invention were prepared. The compounds of the present invention were serially diluted with DMSO at the ratio of 1/3 with setting the maximum concentration at 1968 nM, which were loaded in a new V-bottom 96-well plate, resulting in the preparation of total 11 concentrations including the DMSO control. The cells that had been placed in the incubator were taken out, to which the compounds of the present invention were added (2 μl/well). The plate treated with the compounds was cultured in a 37° C. CO2 incubator for 72 hours. 72 hours later, the plate treated with the compounds was taken out, to which CCK-8 solution was treated (20 μl/well). After well mixing, the plate was further cultured in a 37° C. CO2 incubator for 2 hours. Then, OD450 was measured by using a microplate reader. To obtain accurate results, the wells displaying bubbles were eliminated from the measurement.

`COCCn1cc(Nc2cccn3c(C#Cc4cc(C(=O)Nc5cc(C(C)(C)C(F)(F)F)on5)ccc4C)cnc23)cn1` [Example 58, 3-((8-((1-(2-methoxyethyl)-1H-pyrazol-4-yl)amino)imidazo[1,2-a]pyridin-3-yl)ethynyl)-4-methyl-N-(5-(1,1,1-trifluoro-2-methylpropan-2-yl)isoxazol-3-yl)benzamide]: the IC50 is 320 nM in assay [1], 1300 nM in [2], 1390 nM in assay [3] and 8 nM in assay [4]. Also, the GI50 in assay [5] is 32.6 nM.

For `Cc1ccc(C(=O)Nc2ccc(CN3CCN(C)CC3)c(C(F)(F)F)c2)cc1C#Cc1cnc2c(Nc3ccc(C(F)(F)F)cc3)cccn12` [Example 19, 4-methyl-N-(4-((4-methylpiperazin-1-yl)methyl)-3-(trifluoromethyl)phenyl)-3-((8-((4-(trifluoromethyl)phenyl)amino)imidazo[1,2-a]pyridin-3-yl)ethynyl)benzamide], the IC50 in [6] is 15200 nM; in assay [7] it was 3720 nM; in assay [8], less than 10000 nM; in assay [9] it was 240 nM; in [2], 3190 nM; in [3], 4080 nM. The half-inhibitory concentration (IC50) in [4] worked out at 131 nM. Also, the GI50 in assay [5] is 785 nM.

Turning to `Cc1ccc(NC(=O)Nc2cccc(C(F)(F)F)c2)cc1C#Cc1cnc2c(Nc3cnn(C(C)C)c3)cccn12` [Example 83, 1-(3-((8-((1-isopropyl-1H-pyrazol-4-yl)amino)imidazo[1,2-a]pyridin-3-yl)ethynyl)-4-methylphenyl)-3-(3-(trifluoromethyl)phenyl)urea], the 50% inhibitory concentration (IC50) was 2180 nM in assay [6]; 1440 nM in [7]; 1000 nM in assay [8]; 5700 nM in assay [2]; 5160 nM in assay [3]; 20 nM in assay [4]. For the same compound, the GI50 in [5] is 627 nM.

For the compound `CCN1CCN(Cc2ccc(NC(=O)c3ccc(C)c(C#Cc4cnc5c(Nc6ccc(C)cn6)cccn45)c3)cc2C(F)(F)F)CC1` [Example 21, N-(4-((4-ethylpiperazin-1-yl)methyl)-3-(trifluoromethyl)phenyl)-4-methyl-3-((8-((5-methylpyridin-2-yl)amino)imidazo[1,2-a]pyridin-3-yl)ethynyl)benzamide], the IC50 in assay [6] is 1850 nM; in [7], 1480 nM; in [8] it was less than 100 nM; in assay [2] it was 1650 nM; in assay [3], 1850 nM; in [4] it was 15 nM. Moreover, in [5], the GI50 was 149 nM.

For the compound `Cc1ccc(NC(=O)Nc2cc(C(C)(C)C)on2)cc1C#Cc1cnc2c(Nc3cnn(C(C)C)c3)cccn12` [Example 84, 1-(5-(tert-butyl)isoxazol-3-yl)-3-(3-((8-((1-isopropyl-1H-pyrazol-4-yl)amino)imidazo[1,2-a]pyridin-3-yl)ethynyl)-4-methylphenyl)urea], the half-maximal inhibitory concentration (IC50) in assay [6] is 5650 nM; in [7], 4460 nM; in assay [8] it was 1000 nM; in assay [9] it was 1610 nM; in [2], more than 10000 nM; in [3] it was 5040 nM. In [4], this compound registered a 50% inhibitory concentration (IC50) of 90 nM. The GI50 in [5] turned out to be 3070 nM.

In the case of `Cc1ccc(Nc2cccn3c(C#Cc4cc(C(=O)Nc5ccc(CN6CCN(C)CC6)c(C(F)(F)F)c5)ccc4C)cnc23)cc1` [Example 24, 4-methyl-N-(4-((4-methylpiperazin-1-yl)methyl)-3-(trifluoromethyl)phenyl)-3-((8-(p-toylamino)imidazo[1,2-a]pyridin-3-yl)ethynyl)benzamide], the IC50 in assay [6] was 11300 nM; in [7], 2630 nM; in assay [8], less than 1000 nM; in assay [2] it was 3600 nM; in [3] it was 3520 nM; in assay [4], 45 nM. The GI50 in assay [5] came out at 668 nM.

The values above are taken from US10870647B2, “Imidazopyridine derivative, method for preparing same, and pharmaceutical composition containing same as active ingredient for preventing or treating cancer” (DAEGU-GYEONGBUK MEDICAL INNOVATION FOUNDATION, priority 2016, dated 2020).
